From PMC10298474 (2023)

Tested on: Cy5-labeled 16 bp WC-helix (RNA, duplex) AGAGGGAAUUCCCUCU
Test: microscale thermophoresis
Conditions: 100 mM K+, 2 mM Mg2+; 10 mM HEPES pH 7.5, 0.5 mM EDTA, 0.1% Tween 20, 25 °C; 50 nM RNA; single-site fit

KD: < 0.1 nM
Compound: C[C@@H]1O[C@@H](OC[C@H]2O[C@@H](Oc3c(-c4ccc(O)c(O)c4)oc4cc(O)cc(O)c4c3=O)[C@H](O)[C@@H](O)[C@@H]2O)[C@H](O)[C@H](O)[C@H]1O
